Measured values reported in ChEMBL document CHEMBL5230130, “COVID-19 therapy: What weapons do we bring into battle?” (Bioorg Med Chem, 2020).
Converted amounts (≈) assume the structure as drawn.

Tests used:
SARS-CoV-2 [1] = test: Antiviral activity against SARS-COV 2; assay type: functional, organism-based; settings: Severe acute respiratory syndrome coronavirus 2
[2] = system: Middle East respiratory syndrome-related coronavirus; test: Antiviral activity against MERS-CoV infected in human Calu-3 2B4 cells assessed as reduction in virus-induced cytopathic effect incubated for 48 hrs by celltiterglo assay; assay type: functional, organism-based; settings: Calu-3 2B4, 48 h
SARS-CoV-2 [3] = test: Antiviral activity against SARS-COV-2 infected in African green monkey Vero E6 cells assessed as inhibition of viral growth at 6.25 uM relative to control; assay type: functional; settings: Severe acute respiratory syndrome coronavirus 2, Vero C1008
[4] = Cytotoxicity against human Calu-3 2B4 cells assessed as cell growth inhibition measured after 48 hrs by celltiterglo assay; assay type: toxicity, cell-based
SARS-CoV-2 [5] = test: Antiviral activity against SARS-COV-2 infected in African green monkey Vero E6 cells assessed as inhibition of viral growth at 0.195 uM relative to control; assay type: functional; settings: Severe acute respiratory syndrome coronavirus 2, Vero C1008
[6] = system: Middle East respiratory syndrome-related coronavirus; test: Antiviral activity against MERS-CoV infected in African green monkey Vero E6 cells assessed as reduction in virus-induced cytopathic effect incubated for 48 hrs by celltiterglo assay; assay type: functional, organism-based; settings: Vero C1008, 48 h
SARS-CoV = test: Antiviral activity against SARS-COV infected in African green monkey Vero E6 cells assessed as reduction in virus-induced cytopathic effect incubated for 48 hrs by celltiterglo assay; assay type: functional, organism-based; settings: Severe acute respiratory syndrome-related coronavirus, Vero C1008, 48 h
[7] = Inhibition of human enteric coronavirus strain 4408 nucleoprotein
[8] = Inhibition of Bovine coronavirus nucleoprotein
Peritoneal macrophage = test: Anti-inflammatory activity against mouse peritoneal macrophages assessed as reduction in LPS induced IL-6 level by ELISA analysis; assay type: functional, cell-based
RAW264.7 = test: Anti-inflammatory activity against mouse RAW264.7 cells assessed as reduction in LPS induced IL-6 level by ELISA analysis; assay type: functional, cell-based
SARS-CoV-2 [9] = test: Antiviral activity against SARS-COV-2 infected in African green monkey Vero E6 cells; assay type: functional, organism-based; settings: Severe acute respiratory syndrome coronavirus 2, Vero C1008
[10] = Antiviral activity against hCoV-EMC/2012 infected in monkey LLC-MK2 cells assessed as reduction in viral titers; assay type: functional, Human betacoronavirus 2c EMC/2012
[11] = Antiviral activity against hCoV-EMC/2012 infected in African green monkey Vero cells assessed as reduction in virus-induced cytopathic effect incubated for 24 hrs by […] assay; assay type: functional, cell-based, Human betacoronavirus 2c EMC/2012; settings: Middle East respiratory syndrome-related coronavirus
[12] = Cytotoxicity against African green monkey Vero E6 cells assessed as cell growth inhibition measured after 48 hrs by CCK-8 assay; assay type: toxicity, cell-based, Vero C1008; settings: chlorocebus sabaeus
SARS-CoV-2 [13] = test: Antiviral activity against SARS-CoV-2 nCoV-2019 BetaCoV/Wuhan/WIV04/2019 infected in African green monkey Vero E6 cells assessed as reduction in virus-induced cytopathic effect incubated for 48 hrs by qRT-PCR analysis; assay type: functional, organism-based; settings: Severe acute respiratory syndrome coronavirus 2, nCoV-2019 BetaCoV/Wuhan/WIV04/2019, Vero C1008, 48 h
Canine coronavirus = test: Antiviral activity against Canine coronavirus S-378 infected in dog A-72 cells; assay type: functional, organism-based; settings: Alphacoronavirus 1, S-378, A-72
SARS-CoV-2 [14] = test: Antiviral activity against SARS-COV-2 Australia/VIC01/2020 infected in African green monkey Vero cells by RT-PCR assay; assay type: functional, organism-based, Severe acute respiratory syndrome coronavirus 2

CC(=O)N[C@@H]1[C@H](Oc2c3cc4cc2Oc2ccc(cc2Cl)[C@@H](O[C@@H]2O[C@@H](CO)[C@@H](O)[C@H](O)[C@@H]2NC(C)=O)[C@@H]2NC(=O)[C@H](NC(=O)[C@@H]4NC(=O)[C@H]4NC(=O)[C@@H](Cc5ccc(c(Cl)c5)O3)NC(=O)[C@H](N)c3ccc(O)c(c3)Oc3cc(O)cc4c3)c3ccc(O)c(c3)-c3c(O[C@H]4O[C@H](CO)[C@@H](O)[C@@H](O)[C@@H]4O)cc(O)cc3[C@@H](C(=O)O)NC2=O)O[C@@H](CO)[C@@H](O)[C@@H]1O gave an IC50 (SARS-CoV-2 [1]) of 1.66 µM.
CCC(CC)COC(=O)[C@H](C)N[P@](=O)(OC[C@H]1O[C@@](C#N)(c2ccc3c(N)ncnn23)[C@H](O)[C@@H]1O)Oc1ccccc1 gave an IC50 [2] of 0.025 µM, an inhibition at 6.25 µM (SARS-CoV-2 [3]) of 64.9% and a CC50 at 48 h [4] of 10 µM.
For CC[C@H]1CN2CCc3cc(OC)c(OC)cc3[C@@H]2C[C@@H]1C[C@H]1NCCc2cc(OC)c(OC)cc21 [EMETINE], the inhibition at 0.195 µM (SARS-CoV-2 [5]) was 64.9%.
In the case of Nc1ccn([C@@H]2O[C@H](CO)[C@@H](O)C2(F)F)c(=O)n1 [GEMCITABINE], the EC50 [6] is reported as 1.2 µM and the EC50 (SARS-CoV) is reported as 4.9 µM.
With CC(=O)Oc1ccccc1C(=O)Nc1ncc([N+](=O)[O-])s1 [NITAZOXANIDE] the IC50 [7] was 0.3 µg/mL (≈ 0.976 µM), the IC50 [8] was 0.3 µg/mL (≈ 0.976 µM) and the IC50 (Peritoneal macrophage) was 2000 µM. It also gave an IC50 (RAW264.7) of 1540 µM.
COC(=O)C[C@](O)(CCCC(C)(C)O)C(=O)O[C@@H]1C(OC)=C[C@]23CCCN2CCc2cc4c(cc2[C@H]13)OCO4 [OMACETAXINE MEPESUCCINATE] gave an EC50 (SARS-CoV-2 [9]) of 2.1 µM.
With NC(=O)c1ncn([C@@H]2O[C@H](CO)[C@@H](O)[C@H]2O)n1 [RIBAVIRIN] the TCID50 [10] was 13.7 µg/mL, the IC50 [11] was 41.4 µg/mL (≈ 170 µM) and the CC50 at 48 h [12] was greater than 400 µM. It also gave an EC50 (SARS-CoV-2 [13]) of 11000 µM.
For O=C(Nc1ncc([N+](=O)[O-])s1)c1ccccc1O [TIZOXANIDE], the IC50 (Canine coronavirus) was 1 µg/mL (≈ 3.77 µM).
IVERMECTIN gave an IC50 (SARS-CoV-2 [14]) of 2 µM.
